For the experiment, the system named is Mus musculus. Kind of experiment: Compound was evaluated for […] antagonist activity towards Mouse vas deferens(MVD). It is filed as functional.

Take `CN(C(=O)Cc1ccc(Cl)c(Cl)c1)[C@H](CN1CCCC1)c1cccc(N=C=S)c1`: the IC50 is 0.0111 µM.

These data come from ChEMBL document CHEMBL1127843, “2-(3,4-Dichlorophenyl)-N-methyl-N-[(1S)-1-(3-isothiocyanatophenyl)-2-(1-pyrrolidinyl)ethyl]acetamide: an opioid receptor affinity label that produces selective and long-lasting kappa antagonism in mice” (J Med Chem, 1994).
